{
  "source": "patent US20250090614A1",
  "about": "“COMPOSITIONS AND METHODS FOR IMPROVING LUNG FUNCTION” (priority 2023, published 2025)",
  "origin": "cited, not measured here",
  "key": {"senescent lung cells": {"test_system": "senescent lung cells", "settings": "mouse model, Palazzo et al. 2023; cited from earlier work"}, "[1]": {"test_system": "Idiopathic pulmonary fibrosis (IPF)", "settings": "Dasatinib and Quercetin given together, pilot study, Justice et al. 2019; cited from earlier work"}},
  "data": [
    {"smiles": "COC(=O)C1=C(C)NC(C)=C(C(=O)OC2CCCN(Cc3ccccc3)C2)C1c1cccc([N+](=O)[O-])c1", "note": "(stereo not drawn) [Benidipine]", "values": [
      {"measurement": "lung emphysema", "setting": "senescent lung cells", "result": "ameliorates"},
      {"measurement": "senescent lung cells", "setting": "senescent lung cells", "result": "decrease"}
    ]},
    {"smiles": "O=c1c(O)c(-c2ccc(O)c(O)c2)oc2cc(O)cc(O)c12", "note": "[Quercetin]", "values": [
      {"measurement": "physical dysfunction in Idiopathic pulmonary fibrosis (IPF)", "setting": "[1]", "result": "showed promise"}
    ]}
  ]
}
